Test results from US11945881B2, “Neoantigens expressed in ovarian cancer and their uses” (Janssen Biotech, Inc., priority 2020, dated 2024).

Experiments:
[1] = system: CD8+ T cells; assay: exogenous autologous normal donor restimulation assay, TNFα/IFNγ double positive CD8+ T cells by flow cytometry; format: cell-based, human; conditions: for Fold change (CD8+) vs. DMSO: maximum CD8+ T-cell response (TNFα and IFNγ); for Fold change (CD8+) vs. DMSO / Frequency (TNFα + IFNγ + CD8 T cells): donor independent, peptide pool 10 μg/mL, healthy donors; for Frequency (TNFα + IFNγ + CD8 T cells): maximum CD8+ T-cell response; for Immunogenic (yes/no): positive if CD8+ and/or CD4+ double positive TNFα/IFNγ frequency >=3-fold over DMSO and at least 0.01%
[2] = system: CD4+ T cells; assay: exogenous autologous normal donor restimulation assay, TNFα/IFNγ double positive CD4+ T cells by flow cytometry; format: cell-based, human; conditions: donor independent, peptide pool 10 μg/mL, healthy donors; for Fold change (CD4+) vs. DMSO: maximum CD4+ T-cell response (TNFα and IFNγ); for Frequency (TNFα + IFNγ + CD4 T cells): maximum CD4+ T-cell response

Molecule	Fold change (CD8+) vs. DMSO [1] [fold]	Frequency (TNFα + IFNγ + CD8 T cells) [1] [%]	Immunogenic (yes/no) [1]	Fold change (CD4+) vs. DMSO [2] [fold]	Frequency (TNFα + IFNγ + CD4 T cells) [2] [%]
LDLAGNARPCRSQSPTSSDQTPSVPSLGSPELPDGEEGGSPDGSPQESEQVRQGQHV [AS103, neoantigen, alternative splicing of GTF2IRD1]	48.82	0.83	Yes	6.62	0.086
KNFITCFKGGHASAAEPRKGR [FUS22, neoantigen, gene fusion C8orf82->LRRC24]	8.05	0.087	Yes	8.67	0.31
KRPMASEVSFILIQWLLKP [AS146, neoantigen, alternative splicing of PIP5K1A]	24.2	0.26	Yes	8.88	0.037
LLFPYNQLDLHLHRPSGSRKNEIHWDKCFSSED [AS68, neoantigen, alternative splicing of PKHD1L1]	17.52	0.11	Yes	5.43	0.024
QTQEETDRDRGSWSCAVA [AS64, neoantigen, alternative splicing of IQGAP3]	33.44	0.21	Yes	5.43	0.024
VLRKTAHRSTTARCSCPPWLTCWPRVAAPGALSTVAREASWWLLTTEVV [AS74, neoantigen, alternative splicing of TRPM5]	1018.49	6.6	Yes	17.23	0.064
ALTVVPPGLRLDRVLLHLW [FUS27, neoantigen, gene fusion C17orf99->SYNGR2]	19.77	0.43	Yes	10.37	0.021
AAEQAGCMQCLI [FUS8, neoantigen, gene fusion TYSND1->AIFM2]	6.27	0.12	yes	5.93	0.029
SGCRLTLLSLSPVSSLGCPVPMP [AS107, neoantigen, alternative splicing of MUC16]	2351.27	16.6	Yes	14.89	0.062
VEDEEKKEAGTHFIHLTGTTVSAGVPEEMPATTLRREVF [AS91, neoantigen, alternative splicing of ACIN1]	46.44	0.21	Yes	36.02	0.23
TKKRKQSELQQP [AS95, neoantigen, alternative splicing of DMXL2]	2.54	0.03	No	2.91	0.026
FLIVAEIVTLLIAFI [FUS20, neoantigen, gene fusion CMTM8->CMTM7]	28.23	0.54	Yes	2.36	0.019
LASGVPPPGLPWGPGPHLG [AS60, neoantigen, alternative splicing of HMCN2]	265.02	1.9	Yes	4.3	0.019
LCAISVDRCAALPARAPAPPRPARRPHRGLCAVRRPLGAPRRFVAVAVP [AS159, neoantigen, alternative splicing of DRD4]	39.04	0.12	Yes	12.5	0.081
MAGGVLRRLLCREPDRDGDKGASREETVVPLHIGDPVVLPGIGQCYSALF [FUS1, neoantigen, gene fusion TSTD1->F11R]	2.79	0.06	yes	5.43	0.011
SMMEGVIQLSFKAIVCLLSCLDLLSLFRVVRHLS [AS94, neoantigen, alternative splicing of AFDN]	1080.99	9.61	Yes	62.76	0.098
LKQDVRSGGPGARQLRGGLLRQAAPPGRRTRPFPHRARLHTALPTARLPGGPAAASRPAFRAAPRESGASVPGPSASPG (neoantigen, alternative splicing of IL17RC) LKQDVRSGGPGARQLRGGLLRQAAPPGRRTRPFPHRARLHTALPTARLPGGPAAASRPAFRAAPRESGASVPGPSASPG	25.75	0.36	Yes	10.73	0.12
ARLRELRQCGGGRGKRGQGWGVRDETITGRPAVLGSPFLSPALAPPSRLMGDLWDGQSAGWSPGSPASPFCGGW (neoantigen, alternative splicing of HSF4) ARLRELRQCGGGRGKRGQGWGVRDETITGRPAVLGSPFLSPALAPPSRLMGDLWDGQSAGWSPGSPASPFCGGW	66.2	0.62	Yes	6.63	0.043
HQYIVVQDIHTETQHSALGAQPADSIPPFLQHTLQHLACPSLELPGNEQARREKRRRDDAFSDSL (neoantigen, alternative splicing of SRGAP3) HQYIVVQDIHTETQHSALGAQPADSIPPFLQHTLQHLACPSLELPGNEQARREKRRRDDAFSDSL	14.89	0.16	Yes	12.03	0.078
RDLQCPKKTQTPQAQSRLESERKKNTLTWLVPTPWDWRQWSTAPSRGLVWPPPPVDYELWKSS (neoantigen, alternative splicing of LRRC75B) RDLQCPKKTQTPQAQSRLESERKKNTLTWLVPTPWDWRQWSTAPSRGLVWPPPPVDYELWKSS	143.98	1.28	Yes	10.84	0.047
HFVRSQDKGMVWTPEPSALPRTPRRHPGLSLCSQWGGLRVGPPAARPGWSLAHVLRVTLLQFHPNPGKETQKKQRCPKEDPSRIWRA (neoantigen, alternative splicing of RUFY4) HFVRSQDKGMVWTPEPSALPRTPRRHPGLSLCSQWGGLRVGPPAARPGWSLAHVLRVTLLQFHPNPGKETQKKQRCPKEDPSRIWRA	69.96	1.87	Yes	279.88	0.28
